# Results: US20100267561A1, “HERBICIDAL PYRIDAZINONE DERIVATIVES” (priority 2007, published 2010)
# What was measured:
# Format in all cases: in vivo
# [1] = tested on: pigweed (Amaranthus retroflexus); test: Test A pre-/postemergence plant response
# Outline: (§1)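 Both pre- and postemergence treatment given concurrently; postemergence seedlings measured 2–10 cm at the one- to two-leaf stage. Visual injury, 0–100 scale versus untreated, at ~10 days.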
# [2] = tested on: wheat (Triticum aestivum); test: Test A pre-/postemergence plant response
# Outline: as §1
# [3] = tested on: giant foxtail (Setaria faberi); test: Test A pre-/postemergence plant response
# Outline: as §1
# [4] = tested on: velvetleaf (Abutilon theophrasti); test: Test A pre-/postemergence plant response
# Outline: as §1
# corn (Zea mays) = test: Test A pre-/postemergence plant response
# Outline: as §1
# [5] = tested on: large crabgrass (Digitaria sanguinalis); test: Test A pre-/postemergence plant response
# Outline: as §1
# [6] = tested on: morningglory (Ipomoea coccinea); test: Test A pre-/postemergence plant response
# Outline: as §1
# [7] = tested on: barnyardgrass (Echinochloa crus-galli); test: Test A pre-/postemergence plant response
# Outline: as §1
# [8] = tested on: morningglory (Ipomoea coccinea); test: Test B pre-/postemergence plant response; conditions: for Morningglory plant response rating: 8 g ai/ha
# From the text: (§2) Seeds of plant species selected from blackgrass (Alopecurus myosuroides), downy bromegrass (Bromus tectorum), green foxtail (Setaria viridis), Italian ryegrass (Lolium multiflorum), wheat (Triticum aestivum), wild oat (Avena fatua), catchweed bedstraw (Galium aparine), bermudagrass (Cynodon dactylon), surinam grass (Brachiaria decumbens), cocklebur (Xanthium strumarium), corn (Zea mays), large crabgrass (Digitaria sanguinalis), woolly cupgrass (Eriochloa villosa), giant foxtail (Setaria faberii), goosegrass (Eleusine indica), johnsongrass (Sorghum halepense), kochia (Kochia scoparia), lambsquarters (Chenopodium album), morningglory (Ipomoea coccinea), eastern black (E.B.) nightshade (Solanum ptycanthum), yellow nutsedge (Cyperus esculentus), pigweed (Amaranthus retroflexus), common ragweed (Ambrosia elation), Russian thistle (Salsola iberica), soybean (Glycine max), common (oilseed) sunflower (Helianthus annuus), and velvetleaf (Abutilon theophrasti) were planted and treated preemergence with test chemicals formulated in a non-phytotoxic solvent mixture which included a surfactant.
# (§3) At the same time, plants selected from these crop and weed species and also winter barley (Hordeum vulgare), canarygrass (Phalaris minor), chickweed (Stellaria media) and windgrass (Apera spica-venti) were treated with postemergence applications of some of the test chemicals formulated in the same manner. Plants ranged in height from 2 to 18 cm (1- to 4-leaf stage) for postemergence treatments.
# (§4) Plant species in the flooded paddy test consisted of rice (Oryza sativa), umbrella sedge (Cyperus difformis), ducksalad (Heteranthera limosa) and barnyardgrass (Echinochloa crus-galli) grown to the 2-leaf stage for testing. At time of treatment, test pots were flooded to 3 cm above the soil surface, treated by application of test compounds directly to the paddy water, and then maintained at that water depth for the duration of the test. Treated plants and controls were maintained in a greenhouse for 13 to 15 days, after which time all species were compared to controls and visually evaluated. Plant response ratings, summarized in Table B, are based on a scale of 0 to 100 where 0 is no effect and 100 is complete control. A dash (-) response means no test result.
# [9] = tested on: blackgrass (Alopecurus myosuroides); test: Test B pre-/postemergence plant response; conditions: for Blackgrass plant response rating: 8 g ai/ha
# From the text: as §2, §3, §4
# [10] = tested on: lambsquarters (Chenopodium album); test: Test B pre-/postemergence plant response; conditions: for Lambsquarters plant response rating: 8 g ai/ha
# From the text: as §2, §3, §4
# [11] = Postemergence, 31 g ai/ha, 0 to 100 scale, 0 no effect, 100 complete control
# [12] = Postemergence, 125 g ai/ha, 0 to 100 scale, 0 no effect, 100 complete control
# [13] = Preemergence, 31 g ai/ha, 0 to 100 scale, 0 is no effect, 100 is complete control
# [14] = Preemergence, 125 g ai/ha, 0 to 100 scale (0 no effect, 100 complete control)
# [15] = Postemergence, 16 g ai/ha, scale 0 to 100
# [16] = Postemergence, 31 g ai/ha, scale 0 to 100, 0 no effect, 100 complete control
# [17] = Postemergence, 62 g ai/ha, scale 0 to 100, 0 no effect, 100 complete control
# [18] = Preemergence, 16 g ai/ha, scale 0 to 100 (0 no effect, 100 complete control)
# [19] = Preemergence, 31 g ai/ha, 0 to 100 scale, 0 no effect, 100 complete control
# [20] = Preemergence, 62 g ai/ha, scale 0 to 100
smiles,measurement,setting,value
Cc1cc(-c2ccc(Cl)cc2)nn1-c1c(OC(=O)c2ccccc2Cl)cnn(C)c1=O [Compound 38],"Plant response rating, Pigweed",[1]; [11],0
same,"Plant response rating, Pigweed",[1]; [12],0
same,"Plant response rating, Pigweed",[1]; [13],0
same,"Plant response rating, Pigweed",[1]; [14],0
same,"Plant response rating, Wheat",[2]; [11],0
same,"Plant response rating, Wheat",[2]; [12],60
same,"Plant response rating, Wheat",[2]; [13],20
same,"Plant response rating, Wheat",[2]; [14],60
same,"Plant response rating, Foxtail, Giant",[3]; [11],80
same,"Plant response rating, Foxtail, Giant",[3]; [12],90
same,"Plant response rating, Foxtail, Giant",[3]; [13],90
same,"Plant response rating, Foxtail, Giant",[3]; [14],100
same,"Plant response rating, Velvetleaf",[4]; [11],0
same,"Plant response rating, Velvetleaf",[4]; [12],0
same,"Plant response rating, Velvetleaf",[4]; [13],0
same,"Plant response rating, Velvetleaf",[4]; [14],0
same,"Plant response rating, Corn",corn (Zea mays); [11],20
same,"Plant response rating, Corn",corn (Zea mays); [12],90
same,"Plant response rating, Corn",corn (Zea mays); [13],0
same,"Plant response rating, Corn",corn (Zea mays); [14],70
same,"Plant response rating, Crabgrass, Large",[5]; [11],40
same,"Plant response rating, Crabgrass, Large",[5]; [12],100
same,"Plant response rating, Crabgrass, Large",[5]; [13],90
same,"Plant response rating, Crabgrass, Large",[5]; [14],100
same,"Plant response rating, Morningglory",[6]; [11],0
same,"Plant response rating, Morningglory",[6]; [12],0
same,"Plant response rating, Morningglory",[6]; [13],0
same,"Plant response rating, Morningglory",[6]; [14],0
same,"Plant response rating, Barnyardgrass",[7]; [11],40
same,"Plant response rating, Barnyardgrass",[7]; [12],100
same,"Plant response rating, Barnyardgrass",[7]; [13],90
same,"Plant response rating, Barnyardgrass",[7]; [14],100
same,Morningglory plant response rating,"[8]; postemergence, 0-100 scale",0
same,"Plant response rating, Morningglory",[8]; [15],0
same,"Plant response rating, Morningglory",[8]; [16],0
same,"Plant response rating, Morningglory",[8]; [17],0
same,"Plant response rating, Morningglory",[8]; [18],0
same,"Plant response rating, Morningglory",[8]; [19],0
same,"Plant response rating, Morningglory",[8]; [20],0
same,Morningglory plant response rating,"[8]; Preemergence, scale 0 to 100",0
same,Blackgrass plant response rating,"[9]; postemergence, 0-100 scale",0
same,"Plant response rating, Blackgrass",[9]; [15],40
same,"Plant response rating, Blackgrass",[9]; [16],80
same,"Plant response rating, Blackgrass",[9]; [17],98
same,"Plant response rating, Blackgrass",[9]; [19],90
same,"Plant response rating, Blackgrass",[9]; [20],100
same,Blackgrass plant response rating,"[9]; Preemergence, scale 0 to 100",90
same,Lambsquarters plant response rating,"[10]; postemergence, 0-100 scale",0
same,"Plant response rating, Lambsquarters",[10]; [15],0
same,"Plant response rating, Lambsquarters",[10]; [16],0
same,"Plant response rating, Lambsquarters",[10]; [17],0
same,"Plant response rating, Lambsquarters",[10]; [18],0
same,"Plant response rating, Lambsquarters",[10]; [19],0
same,"Plant response rating, Lambsquarters",[10]; [20],0
same,Lambsquarters plant response rating,"[10]; Preemergence, scale 0 to 100",0
